Measurements from patent US7462625B2, “Gonadotropin-releasing hormone receptor antagonists and methods relating thereto” (Neurocrine Biosciences, Inc., priority 2000, dated 2008).
pKi: −log10 of the molar value. Structures can show the parent of a compound that is named as a salt.

target: T1, GnRH receptor (Homo sapiens, UniProt P30968); assay: GnRH receptor membrane binding assay; conditions: GnRH receptor membrane binding assay, [125I]-labeled GnRH peptide; read-out: Ki
T1 construct: expressed in transfected cells
T1 sequence (P30968 1-328): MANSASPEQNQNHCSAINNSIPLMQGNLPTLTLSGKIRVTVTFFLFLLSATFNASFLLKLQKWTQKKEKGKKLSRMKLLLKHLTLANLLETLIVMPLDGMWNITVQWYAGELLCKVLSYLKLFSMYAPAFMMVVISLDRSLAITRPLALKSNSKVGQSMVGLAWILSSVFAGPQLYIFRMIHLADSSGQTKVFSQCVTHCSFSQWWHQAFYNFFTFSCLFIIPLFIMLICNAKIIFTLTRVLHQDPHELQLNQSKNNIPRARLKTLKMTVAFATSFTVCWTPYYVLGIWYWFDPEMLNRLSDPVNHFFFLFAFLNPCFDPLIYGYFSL
Description: Radio-Iodination of GnRH Peptide
The GnRH analog is labeled by the chloramine-T method. […] The reaction is stopped by the addition of 60 μg sodium metabisulfite and the free iodine is removed by passing the iodinated mixture through a C-8 Sep-Pak cartridge (Millipore Corp., Milford, Mass.). The peptide is eluted with a small volume of 80% acetonitrile/water. […] The purified radioactive peptide is stored in 0.1% BSA/20% acetonitrile/0.1% TFA at −80° C. and can be used for up to 4 weeks.
GnRH Receptor Membrane Binding Assay
Cells stably, or transiently, transfected with GnRH receptor expression vectors are harvested, resuspended in 5% sucrose and homogenized using a polytron homogenizer (2×15 sec). Nucleii are removed by centrifugation (3000×g for 5 min.), and the supernatant centrifuged (20,000×g for 30 min, 4° C.) to collect the membrane fraction. The final membrane preparation is resuspended in binding buffer (10 mM Hepes (pH 7.5), 150 mM NaCl, and 0.1% BSA) and stored at −70° C. Binding reactions are performed in a Millipore MultiScreen 96-well filtration plate assembly with polyethylenimine coated GF/C membranes. […] The reaction is terminated after 90 minutes by application of vacuum and washing (2×) with phosphate buffered saline. Bound radioactivity is measured using 96-well scintillation counting (Packard Topcount) or by removing the filters from the plate and direct gamma counting. Ki values are calculated from competition binding data using non-linear least squares regression using the Prism software package (GraphPad Software).

Row | Compound | pKi
1 | Cc1c(-c2ccc(Oc3ccccc3)cc2)c(=O)n(CCN2CCN(Cc3ccc4c(c3)OCO4)CC2)c(=O)n1Cc1c(F)cccc1F [9-35] | > 7.00
2 | Cc1c(-c2ccc3c(c2)OCCO3)c(=O)n(CCN[C@@H](C)c2ccc3ccccc3c2)c(=O)n1Cc1c(F)cccc1F [9-275] | > 7.00
3 | Cc1c(-c2ccc(Oc3ccccc3)cc2)c(=O)n(CCNCCC(c2ccccc2)c2ccccc2)c(=O)n1Cc1c(F)cccc1F [9-140] | > 7.00
4 | COc1ccc(CCNCCn2c(=O)c(-c3ccc4c(c3)OCO4)c(C)n(Cc3c(F)cccc3F)c2=O)cc1OC [9-244] | > 7.00
5 | Cc1cc(=O)n(C[C@H](N)Cc2ccccc2)c(=O)n1Cc1c(F)cccc1F [8-7] | > 7.00
6 | Cc1c(-c2ccc3c(c2)OCO3)c(=O)n(CCN[C@@H](C)c2ccc3ccccc3c2)c(=O)n1Cc1c(F)cccc1F [9-247] | > 7.00
7 | Cc1c(-c2ccc3c(c2)OCO3)c(=O)n(CCNCCN(C(C)C)C(C)C)c(=O)n1Cc1c(F)cccc1F [9-64] | > 7.00
8 | Cc1c(-c2ccc3c(c2)OCCO3)c(=O)n(CCN(C)CCc2ccccn2)c(=O)n1Cc1c(F)cccc1F [6-3] | > 7.00
9 | COc1cccc(-c2c(C)n(Cc3c(F)cccc3F)c(=O)n(CCN3CCC(NC(=O)OC(C)(C)C)C3)c2=O)c1 (centres unmarked) [7-4] | > 7.00
10 | Cc1c(-c2ccc(Oc3ccccc3)cc2)c(=O)n(CCNCc2ccc([N+](=O)[O-])cc2)c(=O)n1Cc1c(F)cccc1F [9-143] | > 7.00
11 | Cc1c(-c2ccc(NC(=O)OCC(C)C)cc2)c(=O)n(CCN(C)CCc2ccccn2)c(=O)n1Cc1c(F)cccc1F [6-8] | > 7.00
12 | CCN(CCc1ccccn1)CCn1c(=O)c(-c2ccc3c(c2)OCO3)c(C)n(Cc2c(F)cccc2F)c1=O [3-4] | > 7.00
13 | COc1cccc(Oc2ccc(-c3c(C)n(Cc4c(F)cccc4F)c(=O)n(C[C@H](N)c4ccccc4)c3=O)cc2)c1 [8-68] | > 7.00
14 | Cc1c(-c2ccc(Oc3ccccc3)cc2)c(=O)n(CCN[C@@H](C)c2ccc3ccccc3c2)c(=O)n1Cc1c(F)cccc1F [9-219] | > 7.00
15 | Cc1c(-c2ccc3c(c2)OCCO3)c(=O)n(CCNCCN(C)C)c(=O)n1Cc1c(F)cccc1F [9-270] | > 7.00
16 | COc1cccc(-c2c(C)n(Cc3c(F)cccc3F)c(=O)n(CC(C)NCCCOCC(C)C)c2=O)c1 (centres unmarked) [9-19] | > 7.00
17 | Cc1c(-c2ccc(Oc3ccccc3)cc2)c(=O)n(CCN2CC[C@@H](NC(=O)C(F)(F)F)C2)c(=O)n1Cc1c(F)cccc1F [9-42] | > 7.00
18 | Cc1c(-c2ccc(Oc3ccccc3)cc2)c(=O)n(CCNCc2cc(C(F)(F)F)cc(C(F)(F)F)c2)c(=O)n1Cc1c(F)cccc1F [9-32] | > 7.00
19 | COc1cccc(-c2c(C)n(Cc3c(F)cccc3F)c(=O)n(CCN3CCC(NC(=O)C(F)(F)F)C3)c2=O)c1 (centres unmarked) [7-3] | > 7.00
20 | Cc1c(-c2ccc3c(c2)OCO3)c(=O)n(CCNCc2cc(C(F)(F)F)cc(C(F)(F)F)c2)c(=O)n1Cc1c(F)cccc1F [9-63] | > 7.00
21 | Cc1c(-c2ccc3c(c2)OCCO3)c(=O)n(CCNCC(F)(F)F)c(=O)n1Cc1c(F)cccc1F [9-191] | > 7.00
22 | COc1cccc(-c2c(C)n(Cc3c(F)cccc3F)c(=O)n(CCN(C)CCc3cccc(Cl)n3)c2=O)c1 [1-11] | > 7.00
23 | CCN(CC)CCN(C)CCn1c(=O)c(-c2ccc3c(c2)OCO3)c(C)n(Cc2c(F)cccc2F)c1=O [9-249] | > 7.00
24 | Cc1cccnc1CCN1CCCC1Cn1c(=O)cc(C)n(Cc2c(F)cccc2F)c1=O (centres unmarked) [9-415] | > 7.00
25 | CCN1CCC(N(CC)CCn2c(=O)c(-c3cccc(OC)c3)c(C)n(Cc3c(F)cccc3F)c2=O)C1 (centres unmarked) [1-13] | > 7.00
26 | CCNC(=O)[C@@H]1CCCN1CCn1c(=O)c(-c2cccc(OC)c2)c(C)n(Cc2c(F)cccc2F)c1=O [9-3] | > 7.00
27 | Cc1ccc(N2CCN(CCn3c(=O)c(-c4ccc(Oc5ccccc5)cc4)c(C)n(Cc4c(F)cccc4F)c3=O)CC2)cc1 [9-225] | > 7.00
28 | Cc1c(-c2csc(Cc3ccccc3)n2)c(=O)n(C[C@H](N)c2ccccc2)c(=O)n1Cc1c(F)cccc1F [12-5] | > 7.00

Results, then the compound that gave them:

Row | pKi | Compound
29 | > 7.00 | Cc1c(-c2ccccc2F)c(=O)n(CCN(C)C)c(=O)n1Cc1c(F)cccc1F [9-237]
30 | > 7.00 | COc1ccccc1CNC[C@@H](C)n1c(=O)c(-c2cccc(C)c2F)c(C)n(Cc2c(F)cccc2F)c1=O [9-634]
31 | > 7.00 | COc1cccc(-c2c(C)n(Cc3c(F)cccc3F)c(=O)n([C@H](C)CNCc3cccc(C)c3)c2=O)c1 [9-473]
32 | > 7.00 | COc1ccccc1CCNCCn1c(=O)c(-c2ccc(Oc3ccccc3)cc2)c(C)n(Cc2c(F)cccc2F)c1=O [9-215]
33 | > 7.00 | COc1cccc(-c2c(C)n(Cc3c(F)cccc3F)c(=O)n(C[C@H](C)NCc3ccc(O)cc3)c2=O)c1F [9-680]
34 | > 7.00 | Cc1c(-c2ccccc2F)c(=O)n(CCN(C)CCc2ccccn2)c(=O)n1Cc1c(F)cccc1F [6-1]
35 | > 7.00 | COc1cccc(-c2c(C)n(Cc3c(F)cccc3F)c(=O)n(C(C)CNCc3ccccn3)c2=O)c1 (centres unmarked) [9-402]
36 | > 7.00 | Cc1c(-c2ccc(Cl)s2)c(=O)n(C[C@H](N)c2ccccc2)c(=O)n1Cc1c(F)cccc1F [8-75]
37 | > 7.00 | COc1cccc(-c2c(C)n(Cc3c(F)cccc3F)c(=O)n(C[C@@H](C(C)C)N(C)C)c2=O)c1F [9-711]
38 | > 7.00 | COc1cccc(CNC[C@@H](C)n2c(=O)c(-c3cccc(OC)c3)c(C)n(Cc3c(F)cccc3F)c2=O)c1 [9-477]
39 | > 7.00 | COc1ccc(Nc2nc(-c3c(C)n(Cc4c(F)cccc4F)c(=O)n(C[C@H](N)c4ccccc4)c3=O)cs2)cc1OC [12-27]
40 | > 7.00 | COc1cccc(-c2c(C)n(Cc3c(F)cccc3F)c(=O)n([C@H](C)CNCc3ccccn3)c2=O)c1F [9-512]
41 | > 7.00 | COc1cccc(-c2c(C)n(Cc3c(F)cccc3F)c(=O)n(C[C@@H](C)NCc3ccco3)c2=O)c1F [9-652]
42 | > 7.00 | Cc1c(-c2csc(-c3ccc(F)cc3)n2)c(=O)n(C[C@H](N)c2ccccc2)c(=O)n1Cc1c(F)cccc1F [12-24]
43 | > 7.00 | CN[C@H](CC(C)C)Cn1c(=O)c(-c2cccc(OC)c2F)cn(Cc2c(F)cccc2F)c1=O [13-4]
44 | > 7.00 | Cc1c(-c2ccccc2F)c(=O)n(C[C@H](N)c2ccccc2)c(=O)n1Cc1c(F)cccc1F [10-1, 6-Methyl-5-(2-fluorophenyl)-3-[2(R)-amino-2-phenylethyl]-1-(2,6-difluorobenzyl)uracil trifluoroacetic acid salt]
45 | > 7.00 | CSc1cccc(-c2c(C)n(Cc3c(F)cccc3F)c(=O)n(C[C@H](N)c3ccccc3)c2=O)c1 [8-61]

Row | pKi | Compound
46 | > 7.00 | COc1cccc(-c2c(C)n(Cc3c(F)cccc3F)c(=O)n(CCN(C)Cc3ccccn3)c2=O)c1 [1-3]
47 | > 7.00 | COc1cccc(-c2c(C)n(Cc3c(F)cccc3F)c(=O)n(C[C@H](C)N(C)Cc3ccccn3)c2=O)c1F [9-409]
48 | > 7.00 | COc1cccc(-c2c(C)n(Cc3c(F)cccc3F)c(=O)n(C[C@@H](C)NC(C)C(C)C)c2=O)c1F (some centres unmarked) [9-613]
49 | > 7.00 | COc1cccc(-c2c(C)n(Cc3c(F)cccc3F)c(=O)n(C[C@H](C)NCc3[nH]cnc3C)c2=O)c1F [9-602]
50 | > 7.00 | COc1cccc(-c2c(C)n(Cc3c(F)cccc3F)c(=O)n(C[C@@H](N)CC(C)C)c2=O)c1F [8-23]
51 | > 7.00 | Cc1c(-c2ccccc2F)c(=O)n(CCN2CCN(c3cccc(Cl)c3)CC2)c(=O)n1Cc1c(F)cccc1F [9-56]
52 | > 7.00 | COc1cccc(-c2c(C)n(Cc3c(F)cccc3F)c(=O)n(CC[C@@H](N)c3ccccc3)c2=O)c1 [9-774]
53 | > 7.00 | COc1ccc(-c2c(C)n(Cc3c(F)cccc3F)c(=O)n(C[C@H](N)c3ccccc3)c2=O)cc1 [8-100]
54 | > 7.00 | COc1cccc(-c2c(C)n(Cc3c(F)cccc3F)c(=O)n([C@H](C)CNCc3ccccc3C)c2=O)c1F [9-653]
55 | > 7.00 | COc1cccc(-c2c(C)n(Cc3c(F)cccc3F)c(=O)n([C@H](C)CNCc3cc(C)cc(C)c3)c2=O)c1 [9-454]
56 | > 7.00 | COc1cccc(-c2c(C)n(Cc3c(F)cccc3F)c(=O)n(C[C@@H](C)N(C)CCc3ccccn3)c2=O)c1 [9-318]
57 | > 7.00 | CCC(CC(C)C)N[C@@H](C)Cn1c(=O)c(-c2cccc(OC)c2F)c(C)n(Cc2c(F)cccc2F)c1=O (some centres unmarked) [9-688]
58 | > 7.00 | CCCCN(CCCC)[C@H](C)Cn1c(=O)c(-c2cccc(OC)c2F)c(C)n(Cc2c(F)cccc2F)c1=O [9-612]
59 | > 7.00 | Cc1nc(-c2c(C)n(Cc3c(F)cccc3F)c(=O)n(C[C@H](N)c3ccccc3)c2=O)cs1 [12-1]
60 | > 7.00 | CCOc1cccc(-c2c(C)n(Cc3c(F)cccc3F)c(=O)n(C[C@H](N)c3ccccc3)c2=O)c1 [8-59]
61 | > 7.00 | COc1cccc(-c2c(C)n(Cc3c(F)cccc3F)c(=O)n(C[C@@H](C)NCc3ccsc3)c2=O)c1F [9-570]
62 | > 7.00 | Cc1c(-c2ccccc2F)c(=O)n(CCNCCN(C)C)c(=O)n1Cc1c(F)cccc1F [9-227]
